According to patent US20240209028A1, “CNP COMPOUNDS” (priority 2022, published 2024):
Starred links: 1 amine or outer side, 2 acyl side, 3 side chain; linkers in the order of their positions; H or OH if unused. Positions of bridges follow the written chain, without caps; N, C: chain ends. Residues, ends and D or L forms follow the SMILES beside them. *: point of attachment. C18 diacid = O=C(O)CCCCCCCCCCCCCCCCC(=O)*; γGlu = O=C(O)[C@H](CCC(=O)[*:2])N[*:1]; AEEA = NCCOCCOCC(=O)O

Experiments:
[1] = High-Molecular-Weight-Protein (HMWP) formation by SEC-UPLC; assay type: physicochemical; conditions: increase over two weeks at 37° C.
How it was run: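 Formulations at pH 4.0 or 6.5 incubated quiescently for two weeks at 37 °C; HMWP (peaks eluting before monomer, % of total peptide area) measured by SEC-UPLC, pH 2.4 mobile phase with 50% isopropanol, 50 °C, UV 215 nm. Value is HMWP increase, normalized to two weeks if needed.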

[2] = Thioflavin T (ThT) assay: lagtime and peptide recovery; assay type: physicochemical; conditions: assay terminated after 45 hours; for LagTime (h) at pH 6.5: ThT assay, pH 6.5, 37° C.; for LagTime (h) at pH 4.0: ThT, 37° C., shaking
How it was run: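 ThT (final about 1 μM) was added to peptide supernatants at pH 4.0 and 6.5 and incubated at 37 °C with orbital shaking for 45 h. Fluorescence (ex 444/em 485 nm) was read every 20 min, and lag-time was taken as the time to onset of signal rise. Recovery is the RP-UPLC (215 nm) total peak area after vs. before incubation.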

CC[C@H](C)[C@@H]1NC(=O)[C@H](CCCNC(=N)N)NC(=O)[C@H](CC(=O)O)NC(=O)[C@H](CC(C)C)NC(=O)[C@@H]2CCCN2C(=O)[C@H](CC(C)C)NC(=O)CNC(=O)[C@H](Cc2ccccc2)NC(=O)[C@@H](NC(=O)CNC(=O)[C@H](CCC(N)=O)NC(=O)[C@H](CO)NC(=O)[C@H](CC(C)C)NC(=O)CNC(=O)[C@H](CCCCN)NC(=O)[C@H](CCCCN)NC(=O)[C@H](CCC(N)=O)NC(=O)[C@H](C)NC(=O)CNC(=O)[C@H](CCCCN)NC(=O)[C@H](Cc2ccc(O)cc2)NC(=O)[C@H](CCCCN)NC(=O)[C@H](CCCNC(=N)N)NC(=O)[C@H](C)NC(=O)COCCOCCNC(=O)COCCOCCNC(=O)CC[C@H](NC(=O)CC[C@H](NC(=O)CC[C@H](NC(=O)CC[C@H](NC(=O)CC[C@H](NC(=O)CCCCCCCCCCCCCCCCC(=O)O)C(=O)O)C(=O)O)C(=O)O)C(=O)O)C(=O)O)CSSC[C@@H](C(=O)O)NC(=O)CNC(=O)[C@H](CC(C)C)NC(=O)CNC(=O)[C@H](CO)NC(=O)[C@H](CC(C)C)NC(=O)[C@H](CO)NC(=O)CNC1=O [compound 1453] ({C18 diacid-γGlu-γGlu-γGlu-γGlu-γGlu-AEEA-AEEA}-ARKYKGAQKKGLSQGCFGLPLDRIGSLSGLGC-OH; disulfide 16-32)
2-Week HMWP formation at pH 6.5 (%), % relative to total peak area [1]: 3.94% | LagTime (h) at pH 6.5 [2]: 45 h

CC[C@H](C)[C@@H]1NC(=O)[C@H](CCCNC(=N)N)NC(=O)[C@H](CCC(=O)O)NC(=O)[C@H](CC(C)C)NC(=O)[C@@H]2CCCN2C(=O)[C@H](CC(C)C)NC(=O)CNC(=O)[C@H](Cc2ccccc2)NC(=O)[C@@H](NC(=O)CNC(=O)[C@H](CO)NC(=O)[C@H](CO)NC(=O)[C@H](CC(C)C)NC(=O)CNC(=O)[C@H](CCCCN)NC(=O)[C@H](CCCCN)NC(=O)[C@H](CCC(N)=O)NC(=O)[C@H](C)NC(=O)CNC(=O)[C@H](CCCCN)NC(=O)[C@H](Cc2ccc(O)cc2)NC(=O)[C@H](CCCCN)NC(=O)[C@H](CCCNC(=N)N)NC(=O)[C@H](C)NC(=O)[C@H](CCC(N)=O)NC(=O)[C@@H]2CCCN2C(=O)[C@H](Cc2c[nH]cn2)NC(=O)[C@H](CCC(=O)O)NC(=O)[C@H](CCC(N)=O)NC(=O)CC[C@H](NC(=O)CC[C@H](NC(=O)CC[C@H](NC(=O)CC[C@H](NC(=O)CCCCCCCCCCCCCCCCC(=O)O)C(=O)O)C(=O)O)C(=O)O)C(=O)O)CSSC[C@@H](C(=O)O)NC(=O)CNC(=O)[C@H](CC(C)C)NC(=O)CNC(=O)[C@H](CO)NC(=O)[C@H](CC(C)C)NC(=O)[C@H](CO)NC(=O)CNC1=O [compound 9483] ({C18 diacid-γGlu-γGlu-γGlu-γGlu}-QEHPQARKYKGAQKKGLSSGCFGLPLERIGSLSGLGC-OH; disulfide 21-37)
2-Week HMWP formation at pH 4.0 (%), % relative to total peak area [1]: 3.0% | LagTime (h) at pH 4.0 [2]: 45 h

CC[C@H](C)[C@@H]1NC(=O)[C@H](CCCNC(=N)N)NC(=O)[C@H](CC(=O)O)NC(=O)[C@H](CC(C)C)NC(=O)[C@@H]2CCCN2C(=O)[C@H](CC(C)C)NC(=O)CNC(=O)[C@H](Cc2ccccc2)NC(=O)[C@@H](NC(=O)CNC(=O)[C@H](CCC(N)=O)NC(=O)[C@H](CO)NC(=O)[C@H](CC(C)C)NC(=O)CNC(=O)[C@H](CCCCN)NC(=O)[C@H](CCCCN)NC(=O)[C@H](CCC(N)=O)NC(=O)[C@H](C)NC(=O)CNC(=O)[C@H](CCCCN)NC(=O)[C@H](Cc2ccc(O)cc2)NC(=O)[C@H](CCCCN)NC(=O)[C@H](CCCNC(=N)N)NC(=O)[C@H](C)NC(=O)[C@H](CCC(N)=O)NC(=O)[C@@H]2CCCN2C(=O)[C@H](Cc2c[nH]cn2)NC(=O)[C@H](CCC(=O)O)NC(=O)[C@H](CCC(N)=O)NC(=O)COCCOCCNC(=O)COCCOCCNC(=O)CC[C@H](NC(=O)CC[C@H](NC(=O)CC[C@H](NC(=O)CC[C@H](NC(=O)CC[C@H](NC(=O)CC[C@H](NC(=O)CCCCCCCCCCCCCCCCC(=O)O)C(=O)O)C(=O)O)C(=O)O)C(=O)O)C(=O)O)C(=O)O)CSSC[C@@H](C(=O)O)NC(=O)CNC(=O)[C@H](CC(C)C)NC(=O)CNC(=O)[C@H](CO)NC(=O)[C@H](CC(C)C)NC(=O)[C@H](CO)NC(=O)CNC1=O [compound 1402] ({C18 diacid-γGlu-γGlu-γGlu-γGlu-γGlu-γGlu-AEEA-AEEA}-QEHPQARKYKGAQKKGLSQGCFGLPLDRIGSLSGLGC-OH; disulfide 21-37)
2-Week HMWP formation at pH 6.5 (%), % relative to total peak area [1]: 2.19% | LagTime (h) at pH 6.5 [2]: 45 h

CC[C@H](C)[C@@H]1NC(=O)[C@H](CCCNC(=N)N)NC(=O)[C@H](CC(=O)O)NC(=O)[C@H](CC(C)C)NC(=O)[C@@H]2CCCN2C(=O)[C@H](CC(C)C)NC(=O)CNC(=O)[C@H](Cc2ccccc2)NC(=O)[C@@H](NC(=O)CNC(=O)[C@H](CCC(N)=O)NC(=O)[C@H](CO)NC(=O)CNC(=O)CNC(=O)[C@H](CCCCN)NC(=O)[C@H](Cc2c[nH]cn2)NC(=O)[C@H](CCC(N)=O)NC(=O)[C@H](C)NC(=O)CNC(=O)[C@H](CCC(=O)O)NC(=O)[C@H](Cc2ccc(O)cc2)NC(=O)[C@H](CCCCN)NC(=O)[C@H](CCCNC(=N)N)NC(=O)[C@H](C)NC(=O)COCCOCCNC(=O)COCCOCCNC(=O)COCCOCCNC(=O)COCCOCCNC(=O)CC[C@H](NC(=O)CC[C@H](NC(=O)CCCCCCCCCCCCCCCCC(=O)O)C(=O)O)C(=O)O)CSSC[C@@H](C(=O)O)NC(=O)CNC(=O)[C@H](CC(C)C)NC(=O)CNC(=O)[C@H](CO)NC(=O)[C@H](CC(C)C)NC(=O)[C@H](CO)NC(=O)CNC1=O [compound 1432] ({C18 diacid-γGlu-γGlu-AEEA-AEEA-AEEA-AEEA}-ARKYEGAQHKGGSQGCFGLPLDRIGSLSGLGC-OH; disulfide 16-32)
2-Week HMWP formation at pH 6.5 (%), % relative to total peak area [1]: 2.89% | LagTime (h) at pH 6.5 [2]: 45 h

CC[C@H](C)[C@@H]1NC(=O)[C@H](CCCNC(=N)N)NC(=O)[C@H](CC(=O)O)NC(=O)[C@H](CC(C)C)NC(=O)[C@@H]2CCCN2C(=O)[C@H](CC(C)C)NC(=O)CNC(=O)[C@H](Cc2ccccc2)NC(=O)[C@@H](NC(=O)CNC(=O)[C@H](CCC(N)=O)NC(=O)[C@H](CO)NC(=O)[C@H](CC(C)C)NC(=O)CNC(=O)[C@H](CCCCN)NC(=O)[C@H](CCCCN)NC(=O)[C@H](CCC(N)=O)NC(=O)[C@H](C)NC(=O)CNC(=O)[C@H](CCCCN)NC(=O)[C@H](Cc2ccc(O)cc2)NC(=O)COCCOCCNC(=O)COCCOCCNC(=O)COCCOCCNC(=O)COCCOCCNC(=O)CC[C@H](NC(=O)CC[C@H](NC(=O)CCCCCCCCCCCCCCCCC(=O)O)C(=O)O)C(=O)O)CSSC[C@@H](C(=O)O)NC(=O)CNC(=O)[C@H](CC(C)C)NC(=O)CNC(=O)[C@H](CO)NC(=O)[C@H](CC(C)C)NC(=O)[C@H](CO)NC(=O)CNC1=O [compound 1478] ({C18 diacid-γGlu-γGlu-AEEA-AEEA-AEEA-AEEA}-YKGAQKKGLSQGCFGLPLDRIGSLSGLGC-OH; disulfide 13-29; C-terminus assumed)
2-Week HMWP formation at pH 4.0 (%), % relative to total peak area [1]: 1.98% | LagTime (h) at pH 6.5 [2]: 45 h | LagTime (h) at pH 4.0 [2]: 0.33 h

CC[C@H](C)[C@@H]1NC(=O)[C@H](CCCNC(=N)N)NC(=O)[C@H](CC(=O)O)NC(=O)[C@H](CC(C)C)NC(=O)[C@@H]2CCCN2C(=O)[C@H](CC(C)C)NC(=O)CNC(=O)[C@H](Cc2ccccc2)NC(=O)[C@@H](NC(=O)CNC(=O)[C@H](CO)NC(=O)[C@H](CO)NC(=O)[C@@H](NC(=O)CNC(=O)[C@@H](NC(=O)[C@H](CCCCN)NC(=O)[C@H](CCC(N)=O)NC(=O)[C@H](C)NC(=O)CNC(=O)[C@H](Cc2c[nH]cn2)NC(=O)[C@H](Cc2ccc(O)cc2)NC(=O)COCCOCCNC(=O)COCCOCCNC(=O)COCCOCCNC(=O)CC[C@H](NC(=O)CCCCCCCCCCCCCCCCC(=O)O)C(=O)O)[C@@H](C)O)C(C)C)CSSC[C@@H](C(=O)O)NC(=O)CNC(=O)[C@H](CC(C)C)NC(=O)CNC(=O)[C@H](CO)NC(=O)[C@H](CC(C)C)NC(=O)[C@H](CO)NC(=O)CNC1=O [compound 1352] ({C18 diacid-γGlu-AEEA-AEEA-AEEA}-YHGAQKTGVSSGCFGLPLDRIGSLSGLGC-OH; disulfide 13-29)
2-Week HMWP formation at pH 6.5 (%), % relative to total peak area [1]: 0.82% | LagTime (h) at pH 6.5 [2]: 23 h

CC[C@H](C)[C@@H]1NC(=O)[C@H](CCCNC(=N)N)NC(=O)[C@H](CC(=O)O)NC(=O)[C@H](CC(C)C)NC(=O)[C@@H]2CCCN2C(=O)[C@H](CC(C)C)NC(=O)CNC(=O)[C@H](Cc2ccccc2)NC(=O)[C@@H](NC(=O)CNC(=O)[C@H](CO)NC(=O)[C@H](CO)NC(=O)[C@H](CC(C)C)NC(=O)CNC(=O)[C@H](CCCCN)NC(=O)[C@H](CCCCN)NC(=O)[C@H](CCC(N)=O)NC(=O)[C@H](C)NC(=O)CNC(=O)[C@H](Cc2c[nH]cn2)NC(=O)[C@H](CCC(=O)O)NC(=O)COCCOCCNC(=O)COCCOCCNC(=O)CC[C@H](NC(=O)CCCCCCCCCCCCCCCCC(=O)O)C(=O)O)CSSC[C@@H](C(=O)O)NC(=O)CNC(=O)[C@H](CC(C)C)NC(=O)CNC(=O)[C@H](CO)NC(=O)[C@H](CC(C)C)NC(=O)[C@H](CO)NC(=O)CNC1=O [compound 1310] ({C18 diacid-γGlu-AEEA-AEEA}-EHGAQKKGLSSGCFGLPLDRIGSLSGLGC-OH; disulfide 13-29)
2-Week HMWP formation at pH 6.5 (%), % relative to total peak area [1]: 0.87% | LagTime (h) at pH 6.5 [2]: 45 h
